Source: patent US4731109A, “Herbicidal 2-haloacetanilides” (Monsanto Company, priority 1982, dated 1988)

Tests used:
Yellow Nutsedge = assay: Greenhouse pre-emergence GR15/GR85 selectivity test; assay type: in vivo
Quackgrass [1] = assay: as above; assay type: in vivo
seedling johnsongrass = assay: as above; assay type: in vivo; settings: Table XIV
Excerpt: (§1) A good grade of top soil is placed in aluminum pans and compacted to a depth of three-eighths to one-half inch from the top of the pan. On the top of the soil is placed a number of seeds or vegetative propagules of various plant species. The soil required to level fill the pans after seeding or adding vegetative propagules is weighed into a pan. The soil and a known amount of the active ingredient applied in a solvent or as a wettable powder suspension are thoroughly mixed, and used to cover the prepared pans. […] As an alternative procedure, the overhead irrigation may be omitted. Observations are made about 2-3 weeks after seeding and treatment.
(§2) A further guide to the effectiveness of a chemical as a selective herbicide is the "selectivity factor" ("SF") for a herbicide in given crops and weeds. The selectivity factor is a measure of the relative degree of crop safety and weed injury and is expressed in terms of the GR15 /GR85 ratio, i.e., the GR15 rate for the crop divided by the GR85 rate for the weed, both rates in kg/ha (lb/A). In the tables below, selectivity factors are shown in parenthesis following the GR85 rate for each weed; the symbol "NS" indicates "non-selective". Marginal or undetermined selectivity is indicated by a dash (--).
(§3) Unless otherwise noted; greenhouse tests in Table VI and in other tables below involved herbicide treatments by soil incorporation and an initial overhead irrigation followed by subirrigation as described above.

red rice = assay: as above; assay type: in vivo; settings: Table XIV
Excerpt: as §1, §2, §3

Texas panicum = assay: as above; assay type: in vivo; settings: Table XIV
Excerpt: as §1, §2, §3

itchgrass = assay: as above; assay type: in vivo; settings: Table XIV
Excerpt: as §1, §2, §3

shattercane = assay: as above; assay type: in vivo; settings: Table XIV
Excerpt: as §1, §2, §3

alexandergrass = assay: as above; assay type: in vivo; settings: Table XIV
Excerpt: as §1, §2, §3

fall panicum = assay: as above; assay type: in vivo; settings: Table XIV
Excerpt: as §1, §2, §3

corn = assay: as above; assay type: in vivo
Procedure, shortened: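 Active ingredient mixed into cover soil over seeded pans (pre-emergence soil incorporation), initial overhead irrigation equal to 0.64 cm rainfall, then subirrigation. Scored about 2-3 weeks after seeding; GR15 (crop) and GR85 (weed) rates in kg/ha, selectivity factor = crop GR15 / weed GR85.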

soybeans = assay: Herbicidal effect in a variety of soil types; assay type: in vivo
Quackgrass [2] = assay: Herbicidal effect in a variety of soil types; assay type: in vivo; settings: for selectivity factor (GR15/GR85): in soybeans
rape = assay: Greenhouse pre-emergence GR15/GR85 selectivity test; assay type: in vivo; settings: Table VI
Excerpt: A good grade of top soil is placed in aluminum pans and compacted to a depth of three-eighths to one-half inch from the top of the pan. On the top of the soil is placed a number of seeds or vegetative propagules of various plant species. The soil required to level fill the pans after seeding or adding vegetative propagules is weighed into a pan. The soil and a known amount of the active ingredient applied in a solvent or as a wettable powder suspension are thoroughly mixed, and used to cover the prepared pans. After treatment, the pans are given an initial overhead irrigation of eater, equivalent to one-fourth inch (0.64 cm) rainfall, then watered by subirrigation as need to give adequate moisture for germination and growth. As an alternative procedure, the overhead irrigation may be omitted. Observations are made about 2-3 weeks after seeding and treatment.
In the discussion and tables of data below, reference is made to herbicide application rates symbolized as "GR15 " and "GR85 "; these rates are given in kilograms per hectare (kg/ha) which are convertible into pounds per acre (lbs/A) by dividing the kg/ha rate by 1.12.
as §2
Additionally, pre-emergence herbicidal data from other tests have established that compounds according to this invention also selectively suppress quackgrass, yellow nutsedge and/or other weeds in one or more of the crops cotton, peanuts, bush beans and/or rape. For example, in Table VI are presented data showing the herbicidal selectivity of the compounds of Examples 1 and 2 against quackgrass in rape and snap beans. Unless otherwise noted; greenhouse tests in Table VI and in other tables below involved herbicide treatments by soil incorporation and an initial overhead irrigation followed by subirrigation as described above.
In another greenhouse test, the compounds of Examples 3-5, 9 and 10 were tested for their herbicidal efficacy against a variety of resistant annual and perennial weeds in rape.

wild proso millet = assay: as above; assay type: in vivo, wild proso millet (panicum milicaeum); settings: Table XIV
Excerpt: as §1, §2, §3

[3] = Drummer silty clay, Table XVII A
[4] = Drummer silty clay, Table XVII B
[5] = Drummer silty clay, Table XVII C
[6] = Wabash silty clay, Table XVII B
[7] = Wabash silty clay, Table XVII C

CCOCN(C(=O)CCl)c1c(C)cccc1C(F)(F)F [Example 1, N-(ethoxymethyl)-2'-trifluoromethyl-6'-methyl-2-chloroacetanilide]
GR85 (Yellow Nutsedge; Table IV, Replicate #1): 0.20 Kg/Ha
GR85 (Yellow Nutsedge; Table IV, Replicate #2): 0.12 Kg/Ha
GR85 (Yellow Nutsedge; Table V): 0.10 Kg/Ha
GR85 (Yellow Nutsedge; Table XII): 0.24 Kg/Ha
selectivity with respect to yellow nutsedge in rice (Yellow Nutsedge; in rice): non-selective
selectivity factor (GR15/GR85) (Yellow Nutsedge; yellow nutsedge in corn, Table IV, Replicate #1): 4
selectivity factor (GR15/GR85) (Yellow Nutsedge; yellow nutsedge in corn, Table IV, Replicate #2): 6
selectivity factor (GR15/GR85) (Yellow Nutsedge; yellow nutsedge in corn, Table V): 22
selectivity factor (GR15/GR85) (Yellow Nutsedge; yellow nutsedge in corn, Table XII): 2.9
selectivity factor (GR15/GR85) (Yellow Nutsedge; yellow nutsedge in cotton, Table XII): 8
selectivity factor (GR15/GR85) (Yellow Nutsedge; yellow nutsedge in soybeans, Table IV, Replicate #1): 15
selectivity factor (GR15/GR85) (Yellow Nutsedge; yellow nutsedge in soybeans, Table IV, Replicate #2): 18
selectivity factor (GR15/GR85) (Yellow Nutsedge; yellow nutsedge in soybeans, Table V): 28
selectivity factor (GR15/GR85) (Yellow Nutsedge; yellow nutsedge in soybeans, Table XII): 3.6
GR85 (Quackgrass [1]; Table IV, Replicate #1): 0.18 Kg/Ha
GR85 (Quackgrass [1]; Table IV, Replicate #2): 0.16 Kg/Ha
GR85 (Quackgrass [1]; Table V): 0.08 Kg/Ha
selectivity factors relative to prior art compounds (Quackgrass [1]; Table V, quackgrass and yellow nutsedge in corn and soybeans): exceedingly higher selectivity factors
GR85 Rate (Quackgrass [1]; Table VI): 0.12 Kg/Ha
GR85 (Quackgrass [1]; Table XIII): 0.07 Kg/Ha
selectivity against quackgrass in wheat (Quackgrass [1]; in wheat): non-selective
selectivity factor (GR15/GR85) (Quackgrass [1]; quackgrass in corn, Table IV, Replicate #1): 4
selectivity factor (GR15/GR85) (Quackgrass [1]; quackgrass in corn, Table IV, Replicate #2): 5
selectivity factor (GR15/GR85) (Quackgrass [1]; quackgrass in corn, Table V): 27.5
selectivity factor (GR15/GR85) (Quackgrass [1]; quackgrass in corn, Table XIII): 10
selectivity factor (GR15/GR85) (Quackgrass [1]; quackgrass in rape, Table VI): 7
selectivity factor (GR15/GR85) (Quackgrass [1]; quackgrass in snapbeans, Table VI): 7
selectivity factor (GR15/GR85) (Quackgrass [1]; quackgrass in soybeans, Table IV, Replicate #1): 17
selectivity factor (GR15/GR85) (Quackgrass [1]; quackgrass in soybeans, Table IV, Replicate #2): 14
selectivity factor (GR15/GR85) (Quackgrass [1]; quackgrass in soybeans, Table V): 35
selectivity factor (GR15/GR85) (Quackgrass [1]; quackgrass in soybeans, Table XIII): 11.6
GR85 Rate (seedling johnsongrass): 0.14 Kg/Ha
selectivity factor (GR15/GR85) (seedling johnsongrass; in soybeans): > 8.0
GR85 Rate (red rice): 0.2 Kg/Ha
selectivity factor (GR15/GR85) (red rice; in soybeans): > 5.5
GR85 Rate (Texas panicum): 1.1 Kg/Ha
selectivity factor (GR15/GR85) (Texas panicum; in soybeans): > 1.0
GR85 Rate (itchgrass): 1.1 Kg/Ha
selectivity factor (GR15/GR85) (itchgrass; in soybeans): > 1.0
GR85 Rate (shattercane): 0.28 Kg/Ha
selectivity factor (GR15/GR85) (shattercane; in soybeans): > 4.0
GR85 Rate (alexandergrass): 0.56 Kg/Ha
selectivity factor (GR15/GR85) (alexandergrass; in soybeans): > 2.0
GR85 Rate (fall panicum): < 0.07 Kg/Ha
selectivity factor (GR15/GR85) (fall panicum; in soybeans): > 16
GR15 (corn; Table IV, Replicate #1): 0.76 Kg/Ha
GR15 (corn; Table IV, Replicate #2): 0.76 Kg/Ha
GR15 (corn; Table V): 2.2 Kg/Ha
GR15 (corn; Table XII): 0.69 Kg/Ha
GR15 (corn; Table XIII): 0.69 Kg/Ha
GR15 (corn; corn/purple nutsedge): 0.67 kg/ha
GR15 (soybeans; [3]): > 2.2 Kg/Ha
GR15 (soybeans; [4]): 2.2 Kg/Ha
GR15 (soybeans; [5]): 2.0 Kg/Ha
GR15 (soybeans; Florida muck, Table XVII A): > 2.2 Kg/Ha
GR15 (soybeans; Florida muck, Table XVII B): 2.2 Kg/Ha
GR15 (soybeans; Florida muck, Table XVII C): > 2.2 Kg/Ha
GR15 (soybeans; Florida sand, Table XVII A): 2.0 Kg/Ha
GR15 (soybeans; Florida sand, Table XVII B): 2.2 Kg/Ha
GR15 (soybeans; Ray silt loam, Table XVII A): 1.1 Kg/Ha
GR15 (soybeans; Ray silt loam, Table XVII B): 2.2 Kg/Ha
GR15 (soybeans; Ray silt loam, Table XVII C): 2.0 Kg/Ha
GR15 (soybeans; Sarpy silty clay, Table XVII A): > 2.2 Kg/Ha
GR15 (soybeans; Sarpy silty clay, Table XVII B): 2.2 Kg/Ha
GR15 (soybeans; Sarpy silty clay, Table XVII C): > 2.2 Kg/Ha
GR15 (soybeans; [6]): 2.2 Kg/Ha
GR15 (soybeans; [7]): 2.2 Kg/Ha
GR85 (Quackgrass [2]; [3]): 0.11 Kg/Ha
GR85 (Quackgrass [2]; [4]): 0.17 Kg/Ha
GR85 (Quackgrass [2]; [5]): 0.13 Kg/Ha
GR85 (Quackgrass [2]; Florida muck, Table XVII A): 0.52 Kg/Ha
GR85 (Quackgrass [2]; Florida muck, Table XVII B): 0.78 Kg/Ha
GR85 (Quackgrass [2]; Florida muck, Table XVII C): 0.74 Kg/Ha
GR85 (Quackgrass [2]; Florida sand, Table XVII A): 0.2 Kg/Ha
GR85 (Quackgrass [2]; Florida sand, Table XVII B): 0.48 Kg/Ha
GR85 (Quackgrass [2]; Ray silt loam, Table XVII A): 0.22 Kg/Ha
GR85 (Quackgrass [2]; Ray silt loam, Table XVII B): 0.13 Kg/Ha
GR85 (Quackgrass [2]; Ray silt loam, Table XVII C): 0.10 Kg/Ha
GR85 (Quackgrass [2]; Sarpy silty clay, Table XVII A): 0.28 Kg/Ha
GR85 (Quackgrass [2]; Sarpy silty clay, Table XVII B): 0.10 Kg/Ha
GR85 (Quackgrass [2]; Sarpy silty clay, Table XVII C): 0.13 Kg/Ha
GR85 (Quackgrass [2]; Wabash silty clay, Table XVII A): 0.28 Kg/Ha
GR85 (Quackgrass [2]; [6]): 0.13 Kg/Ha
GR85 (Quackgrass [2]; [7]): 0.07 Kg/Ha
selectivity factor (GR15/GR85) (Quackgrass [2]; [3]): 20
selectivity factor (GR15/GR85) (Quackgrass [2]; [4]): 13
selectivity factor (GR15/GR85) (Quackgrass [2]; [5]): 14.5
selectivity factor (GR15/GR85) (Quackgrass [2]; Florida muck, Table XVII A): > 4.5
selectivity factor (GR15/GR85) (Quackgrass [2]; Florida muck, Table XVII B): > 3
selectivity factor (GR15/GR85) (Quackgrass [2]; Florida muck, Table XVII C): > 3
selectivity factor (GR15/GR85) (Quackgrass [2]; Florida sand, Table XVII A): 10
selectivity factor (GR15/GR85) (Quackgrass [2]; Florida sand, Table XVII B): 4.5
selectivity factor (GR15/GR85) (Quackgrass [2]; Ray silt loam, Table XVII A): 5
selectivity factor (GR15/GR85) (Quackgrass [2]; Ray silt loam, Table XVII B): 16.5
selectivity factor (GR15/GR85) (Quackgrass [2]; Ray silt loam, Table XVII C): 19.5
selectivity factor (GR15/GR85) (Quackgrass [2]; Sarpy silty clay, Table XVII A): > 8
selectivity factor (GR15/GR85) (Quackgrass [2]; Sarpy silty clay, Table XVII B): 22
selectivity factor (GR15/GR85) (Quackgrass [2]; Sarpy silty clay, Table XVII C): > 16.5
selectivity factor (GR15/GR85) (Quackgrass [2]; [6]): 17
selectivity factor (GR15/GR85) (Quackgrass [2]; [7]): 31.5
GR15 Rate (rape): 0.85 Kg/Ha
GR85 Rate (wild proso millet): 1.1 Kg/Ha
selectivity factor (GR15/GR85) (wild proso millet; in soybeans): > 1.0
